The values below come from US20220290237A1, “METHOD FOR PREDICTING THE RESPONSE OF ANTIPSYCHOTIC DRUGS” (INSERM (INSTITUT NATIONAL DE LA SANTÉ ET DE LA RECHERCHE …, priority 2019, published 2022).

In the test the test system is total RNA from blood samples. Briefly: qRT-PCR replication of expression changes after amisulpride treatment in 24 independent subjects. The format is in vivo, human. The note with it: 4 weeks amisulpride. The method, then:
Total RNA was extracted from blood samples, collected in PAXgene Blood RNA tubes, with the PAXgene Blood miRNA Kit (QIAGEN GmbH, Hilden, Germany) using a standard protocol on QlAcube robot (QIAGEN). A DNase digestion procedure was added after extraction. Total RNA was purified using the RNA Clean & Concentrator™-5 kit following the manufacturer's instructions (Zymo Research Corp., Irvine, USA). RNA quantification was performed on a NanoDrop™ 8000 spectrophotometer, in duplicate. The quality and integrity of the RNA samples were assessed using an Agilent Bioanalyzer 2100 and the RNA6000 Nano Labchip kit (Agilent Technologies). Only samples with an RNA integrity number (RIN) higher than 7 were selected. Three hundred and seventy-six RNA samples fulfilled quality control criteria for RNA-seq analyses, corresponding to two RNA samples (one at inclusion and one after 4 weeks of treatment) for 188 subjects. Forty-eight additional RNAs were available for replication studies, in 24 independent subjects.
Five-hundred nanograms of total RNA was reverse-transcribed using the High-Capacity cDNA Reverse Transcription kit following standard protocol (Thermo Fisher Scientific, Waltham, Mass., U.S.A.). Mixtures of the cDNAs and the TaqMan Universal PCR Master Mix were further loaded in the 384-well low density TaqMan array microfluidic cards (Thermo Fisher Scientific). Real-time PCR reactions were then carried out in an ABI Prism 7900HT sequence detection system (Thermo Fisher Scientific) using manufacturer's instructions. Each assay was carried out in duplicate and threshold cycle (Ct) values were automatically calculated by the SDS 2.2 software (Thermo Fisher Scientific), after having manually set the analysis threshold. Two reference genes (18S, and GUSB) with various expression levels were included in the analyses to perform a relative RNA quantification, using the most suitable reference gene.
For the qRT-PCR analysis, ΔCt values of each gene of interest were calculated before and after treatment and then normalized by subtracting the ΔCt values of the reference gene to generate ΔΔCt values. To select genes with significant expression changes after treatment, the medians of fold changes (2-ΔΔCt) were subsequently compared to a reference (Me=1) using Wilcoxon Rank Sum Test, and an adjusted p-values below 0.1 was considered to be significant.
To validate these DEGs, we used qRT-PCR in 24 independent subjects from the OPTiMiSE cohort, who were not included in the RNA-seq analyses and with a more than 20% improvement in total PANSS score after treatment (FIG. 1). We selected only brain-expressed protein-coding genes that were differentially expressed after treatment in good responders only. In addition, we restricted our selection to genes for which the expression change was correlated with symptom improvement (Table 1). […] In addition, two genes (P4HA2 and TRPC6) were removed from replication studies, because they were not detectable by qRT-PCR. Eleven genes were thus tested in the replication sample.
A general note: Quantitative PCR measures a nucleic acid by following its amplification.

The structures appear in SMILES notation.

In the case of `CCN1CCCC1CNC(=O)c1cc(S(=O)(=O)CC)c(N)cc1OC` (centres unmarked) [amisulpride, 4-amino-N-((1-ethyl-2-pyrrolidinyl)methyl)-5-(etgylsulfonyl)-2-methoxybenzamide], the “FC, fold-change at week 4 relative to the expression level at inclusion: ACSL5” value (ACSL5, replication sample (n = 24)) stood at 1.06. The “FC, fold-change at week 4 relative to the expression level at inclusion: ALPL” value (ALPL, replication sample (n = 24)) turned out to be 0.77. The “FC, fold-change at week 4 relative to the expression level at inclusion: CA4” value (CA4, replication sample (n = 24)) is on record as 0.71. Also, the “FC, fold-change at week 4 relative to the expression level at inclusion: DGAT2” value (DGAT2, replication sample (n = 24)) worked out at 0.73. Besides, for the setting “DHRS13, replication sample (n = 24)”, the “FC, fold-change at week 4 relative to the expression level at inclusion: DHRS13” value was 0.82. For the same molecule, the “FC, fold-change at week 4 relative to the expression level at inclusion: GALNT14” value (GALNT14, replication sample (n = 24)) was 0.76. The “FC, fold-change at week 4 relative to the expression level at inclusion: HOMER3” value (HOMER3, replication sample (n = 24)) was found to be 0.84. For the same molecule, the “FC, fold-change at week 4 relative to the expression level at inclusion: KAZN” value (KAZN, replication sample (n = 24)) was 0.67. In addition, the “FC, fold-change at week 4 relative to the expression level at inclusion: KIAA0319” value (KIAA0319, replication sample (n = 24)) is reported as 0.77. For the same molecule, the “FC, fold-change at week 4 relative to the expression level at inclusion: SLC4A4” value (SLC4A4, replication sample (n = 24)) was determined as 0.84. Where the note is “WLS, replication sample (n = 24)”, the “FC, fold-change at week 4 relative to the expression level at inclusion: WLS” value is 0.85.
